Reference: the NIST ThermoML archive (doi:10.1016/j.jct.2005.08.009)

Assay: xn = mol fraction of the nth substance listed
Settings: 101 kPa, Liquid

CC#N [acetonitrile] + O
Settings	mass density, 298.15 K [kg/m3]	mass density, 303.15 K [kg/m3]	mass density, 308.15 K [kg/m3]	mass density, 313.15 K [kg/m3]	mass density, 318.15 K [kg/m3]	viscosity, 298.15 K [mPa·s]	viscosity, 303.15 K [mPa·s]	viscosity, 308.15 K [mPa·s]	viscosity, 313.15 K [mPa·s]	viscosity, 318.15 K [mPa·s]
x1 = 0.051	978.98	975.65	972.14	969.11	965.89	0.9849	0.8799	0.7964	0.7208	0.6522
x1 = 0.1169	954.73	951.24	947.08	943.32	939.05	0.9567	0.8628	0.7842	0.7155	0.6524
x1 = 0.1971	924.74	921.1	916.51	912.69	908.03	0.8743	0.7931	0.7218	0.6628	0.6069
x1 = 0.2728	900.14	896.29	891.33	887.31	882.39	0.7891	0.7152	0.6502	0.5951	0.5462
x1 = 0.3601	876.35	872.19	866.86	862.67	857.41	0.6953	0.6298	0.5737	0.5266	0.4853
x1 = 0.4417	857.17	852.79	846.98	842.61	837.06	0.6061	0.5574	0.5121	0.4744	0.4435
x1 = 0.5204	841.27	836.65	830.76	826.18	820.41	0.5387	0.4972	0.4606	0.4317	0.4089
x1 = 0.6012	826.9	822.15	816.07	811.38	805.44	0.4802	0.4473	0.4189	0.3959	0.3783
x1 = 0.6671	816.3	811.49	805.22	800.45	794.36	0.4415	0.4138	0.3902	0.3698	0.3556
x1 = 0.7398	805.64	800.78	794.39	789.71	783.69	0.4064	0.3831	0.3633	0.3471	0.3353
x1 = 0.8253	794.81	789.89	783.52	778.81	772.68	0.3722	0.3545	0.3386	0.3256	0.3159
x1 = 0.886	787.78	782.84	776.44	771.75	765.67	0.3561	0.3405	0.3259	0.3142	0.3039
x1 = 0.9389	782.44	777.52	771.07	766.36	760.29	0.3478	0.333	0.3173	0.3061	0.2963
x1 = 0.999	–	–	–	–	–	0.3418	0.3281	0.313	0.301	0.29
x1 = 1	776.69	771.89	765.46	760.86	754.76	0.3417	0.328	0.3129	0.3009	0.2899
